# Columns and labels:
# [1] = target: T1, LXRβ ligand-binding domain (Homo sapiens, UniProt P55055, DUP175-175); assay: TR-FRETβ activity assay (NCoA3 coactivator peptide recruitment); type: biochemical; details: TR-FRET, 1 μM 24(S)-25-epoxycholesterol prestimulation; read-out: FRETβ (EC50 range)
# T1 construct: amino acids 156-461; NP009052; made in house; host or cells: E. coli
# T1 sequence (P55055 with tags, fused parts or gaps DUP175-175 limits assumed): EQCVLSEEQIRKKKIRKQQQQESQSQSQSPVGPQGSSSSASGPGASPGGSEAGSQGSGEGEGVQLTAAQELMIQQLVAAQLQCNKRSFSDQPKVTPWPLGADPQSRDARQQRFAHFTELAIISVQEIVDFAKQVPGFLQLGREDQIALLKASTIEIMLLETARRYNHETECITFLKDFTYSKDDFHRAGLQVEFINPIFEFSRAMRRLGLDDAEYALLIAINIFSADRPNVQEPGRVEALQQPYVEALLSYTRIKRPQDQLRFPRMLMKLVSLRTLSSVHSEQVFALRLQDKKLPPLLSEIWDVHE
# Method in brief: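 Inverse agonism assessed by loss of coactivator recruitment, read as TR-FRET 665/615 nm after 1 h equilibration at 4 °C, in triplicate. Ten-point titration from 50 μM to 0.002 μM against LXRβ LBD (76 nM, GST fusion) prestimulated with 1 μM 24(S)-25-epoxycholesterol, with 400 nM NCoA3 peptide, pH 6.8. Sulfonyl acetic acids kept as 20 mM DMSO stocks with 100 mM TFA.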
# full length (FL) LXRα = target: T2, full length (FL) LXRα (Homo sapiens, UniProt Q13133); assay: LXR Gal4 reporter transient transfection assay (FL-M2H Gal4α); type: cell-based; details: HEK293 cells, full length LXRα; read-out: FL-M2H Gal4α (EC50 range)
# T2 construct: the full length (FL) proteins of LXRα (amino acids 1-447); NP005684; expressed in transfected cells; host or cells: HEK293
# T2 sequence (Q13133 1-447): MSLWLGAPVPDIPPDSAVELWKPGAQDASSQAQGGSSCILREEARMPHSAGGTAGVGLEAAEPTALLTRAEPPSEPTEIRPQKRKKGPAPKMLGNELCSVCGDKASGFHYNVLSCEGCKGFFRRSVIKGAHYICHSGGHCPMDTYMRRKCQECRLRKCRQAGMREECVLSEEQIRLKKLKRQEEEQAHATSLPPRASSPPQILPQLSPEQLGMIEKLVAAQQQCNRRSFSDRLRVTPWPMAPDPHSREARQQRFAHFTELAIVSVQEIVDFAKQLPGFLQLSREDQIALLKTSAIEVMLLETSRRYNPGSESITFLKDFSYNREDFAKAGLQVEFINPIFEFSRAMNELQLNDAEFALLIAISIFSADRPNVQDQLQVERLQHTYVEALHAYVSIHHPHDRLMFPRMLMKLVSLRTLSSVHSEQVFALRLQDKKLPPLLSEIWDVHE
# Method in brief: (§1)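 Test compounds act for 16 h on transiently transfected HEK293 cells carrying AD-LXR and GAL4 BD-cofactor (SRC1 or NCoR) fusions. Firefly luciferase under GAL4 elements is quantified and corrected with Renilla luciferase for transfection efficiency.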
# full length (FL) LXRβ = target: T3, full length (FL) LXRβ (Homo sapiens, UniProt P55055, DUP175-175); assay: LXR Gal4 reporter transient transfection assay (FL-M2H Gal4β); type: cell-based; details: HEK293 cells, full length LXRβ; read-out: FL-M2H Gal4β (EC50 range)
# T3 construct: the full length (FL) proteins of LXRα (amino acids 1-447); NP005684; NP009052; expressed in transfected cells; host or cells: HEK293
# T3 sequence (P55055 with tags, fused parts or gaps DUP175-175): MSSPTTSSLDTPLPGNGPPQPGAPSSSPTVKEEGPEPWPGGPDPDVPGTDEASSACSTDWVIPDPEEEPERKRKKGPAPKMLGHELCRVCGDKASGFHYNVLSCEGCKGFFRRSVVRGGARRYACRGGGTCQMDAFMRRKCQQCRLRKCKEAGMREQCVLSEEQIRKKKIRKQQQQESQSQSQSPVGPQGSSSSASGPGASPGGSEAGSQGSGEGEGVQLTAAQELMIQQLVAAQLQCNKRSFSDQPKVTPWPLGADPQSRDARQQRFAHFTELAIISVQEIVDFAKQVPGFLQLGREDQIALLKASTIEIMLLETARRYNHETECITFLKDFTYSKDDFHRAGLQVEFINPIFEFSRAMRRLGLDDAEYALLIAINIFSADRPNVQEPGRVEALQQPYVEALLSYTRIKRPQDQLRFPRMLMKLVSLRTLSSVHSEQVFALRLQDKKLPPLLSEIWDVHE
# Method in brief: as §1
Structure (SMILES),EC50 [1] [nM],EC50 (full length (FL) LXRα) [nM],EC50 (full length (FL) LXRβ) [nM]
CC(O)(C(=O)O)c1cc(F)c(-c2cccc(-c3c(-c4c(C#N)cccc4C#N)c4cc(F)ccc4n3S(=O)(=O)c3ccc(C(F)F)cc3)c2)c(F)c1 (stereo not drawn) [3/72],< 100,< 100,< 100
Cc1ccc(S(=O)(=O)n2c(-c3cccc(C4CC4C(=O)O)c3)c(-c3ccsc3C#N)c3ccncc32)cc1 (stereo not drawn) [4/1],1000 to 10000,100 to 1000,< 100
Cc1ccc(S(=O)(=O)n2c(-c3cccc(C4CC4C(=O)O)c3)c(-c3ccsc3C#N)c3cccnc32)cc1 (stereo not drawn) [4/2],1000 to 10000,100 to 1000,100 to 1000
Cc1ccc(S(=O)(=O)n2c(-c3cccc(N4CC(C(=O)O)C4)c3)c(-c3ccsc3C#N)c3sccc32)cc1 [4/3],1000 to 10000,< 100,< 100
Cc1ccc(S(=O)(=O)n2c(-c3cccc(-c4ccc(CO)c(S(=O)(=O)CC(=O)O)c4)c3)c(-c3ccsc3C#N)c3ccccc32)cc1 [5/1],100 to 1000,1000 to 10000,100 to 1000
Cc1ccc(S(=O)(=O)n2c(-c3cccc(C45CC(C(=O)O)(C4)C5)c3)c(-c3ccsc3C#N)c3ccccc32)cc1 [5/2],100 to 1000,100 to 1000,100 to 1000
Cc1ccc(S(=O)(=O)n2c(-c3cccc(C#CC(C)(C)C(=O)O)c3)c(-c3ccsc3C#N)c3cc(F)ccc32)cc1 [5/4],1000 to 10000,100 to 1000,< 100
Cc1ccc(S(=O)(=O)n2c(-c3cccc(-n4ccc(C(=O)O)cc4=O)c3)c(-c3ccsc3C#N)c3cc(F)ccc32)cc1 [5/5],100 to 1000,100 to 1000,100 to 1000
Cc1ccc(S(=O)(=O)n2c(-c3ccnc(-c4ccc(C(=O)O)cc4)c3)c(-c3ccsc3C#N)c3cc(F)ccc32)cc1 [5/6],100 to 1000,< 100,< 100
N#Cc1sccc1-c1c(-c2cccc(N3CC(C(=O)O)C3)c2)n(S(=O)(=O)c2ccc(Cl)cc2)c2ccc(F)cc12 [5/7],100 to 1000,100 to 1000,< 100
COc1ccc(S(=O)(=O)n2c(-c3cccc(N4CC(C(=O)O)C4)c3)c(-c3ccsc3C#N)c3cc(F)ccc32)cn1 [5/8],100 to 1000,100 to 1000,100 to 1000
Cc1ccc(S(=O)(=O)n2c(-c3cccc(N4CC[C@@H](C(=O)O)C[C@H]4C)c3)c(-c3ccsc3C#N)c3cc(F)ccc32)cc1 [5/9],100 to 1000,100 to 1000,< 100
O=C(O)c1ccc(-c2cccc(-c3c(-c4ncccc4N4CC(O)C4)c4cc(F)ccc4n3S(=O)(=O)c3ccc(C(F)F)cc3)c2)c(Cl)c1 [5/10],1000 to 10000,100 to 1000,100 to 1000
N#Cc1sccc1-c1c(-c2cccc(C3CC3C(=O)NO)c2)n(S(=O)(=O)c2ccc(Cl)cc2)c2ccccc12 (stereo not drawn) [6/1],100 to 1000,< 100,< 100
CC(C)(C)OC(=O)CNC(=O)c1ccc(-c2cccc(-c3c(-c4c(C#N)cccc4C#N)c4cc(F)ccc4n3S(=O)(=O)c3ccc(C(F)F)cc3)c2)c(Cl)c1 [6/3],< 100,< 100,< 100
Cc1ccc(S(=O)(=O)n2c(-c3cccc(-c4ccc(CN(C)C)cc4)c3)c(-c3ccsc3C#N)c3cc(F)ccc32)cc1 [8/1],100 to 1000,< 100,< 100
O=C(O)c1ccc(-c2cccc(-c3c(-c4ccccc4C4COC4)c4cnccc4n3S(=O)(=O)c3ccc(C(F)F)cc3)c2)c(Cl)c1 [8/3],100 to 1000,100 to 1000,< 100
